Experimental data from PubChem BioAssay AID248 (DTP/NCI, 2004).
Values joined by “and” are separate entries in the source; they are usually repeats but may differ in a detail not shown here. Equal entries are not always repeated. Inconclusive results and toxic doses are left out. Rule as the data show it: active = T/C of 150% or more; inactive = T/C below 125%.

Tested on: L1210 leukemia ip in BDF1 mice, survival T/C
Assay: NCI In Vivo Anticancer Drug Screen. Data for tumor model L1210 Leukemia (intraperitoneal) in B6D2F1 (BDF1) mice
Conditions: endpoint: mean survival time, higher = longer survival
Procedure, shortened: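 Read-out is survival time, reported as the treated-group measurement over the vehicle-control measurement.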

[1] = dose: 100.0 mg/kg/injection, schedule: Q01DX001 (ip), vehicle: carboxymethylcellulose (CMC)
[2] = dose: 200.0 mg/kg/injection, schedule: Q01DX001 (ip), vehicle: carboxymethylcellulose (CMC)
[3] = dose: 400.0 mg/kg/injection, schedule: Q01DX001 (ip), vehicle: carboxymethylcellulose (CMC)
[4] = dose: 75.0 mg/kg/injection, schedule: Q01DX001 (ip), vehicle: saline
[5] = dose: 150.0 mg/kg/injection, schedule: Q01DX001 (ip), vehicle: saline
[6] = dose: 5.0 mg/kg/injection, schedule: Q01DX001 (ip), vehicle: saline
[7] = dose: 6.25 mg/kg/injection, schedule: Q01DX009 (ip), vehicle: saline
[8] = dose: 12.5 mg/kg/injection, schedule: Q01DX009 (ip), vehicle: saline
[9] = dose: 25.0 mg/kg/injection, schedule: Q01DX009 (ip), vehicle: saline
[10] = dose: 50.0 mg/kg/injection, schedule: Q01DX009 (ip), vehicle: saline
[11] = dose: 100.0 mg/kg/injection, schedule: Q01DX001 (ip), vehicle: saline
[12] = dose: 100.0 mg/kg/injection, schedule: Q04DX003 (ip), vehicle: saline
[13] = dose: 100.0 mg/kg/injection, schedule: Q01DX009 (ip), vehicle: saline
[14] = dose: 200.0 mg/kg/injection, schedule: Q01DX009 (ip), vehicle: saline
[15] = dose: 400.0 mg/kg/injection, schedule: Q01DX009 (ip), vehicle: saline
[16] = dose: 100.0 mg/kg/injection, schedule: Q01DX009 (ip), vehicle: Klucel (hydroxypropylcellulose) (HPC)
[17] = dose: 100.0 mg/kg/injection, schedule: Q04DX003 (ip), vehicle: Klucel (hydroxypropylcellulose) (HPC)
[18] = dose: 200.0 mg/kg/injection, schedule: Q01DX009 (ip), vehicle: Klucel (hydroxypropylcellulose) (HPC)
[19] = dose: 200.0 mg/kg/injection, schedule: Q04DX003 (ip), vehicle: Klucel (hydroxypropylcellulose) (HPC)
[20] = dose: 400.0 mg/kg/injection, schedule: Q01DX009 (ip), vehicle: Klucel (hydroxypropylcellulose) (HPC)
[21] = dose: 400.0 mg/kg/injection, schedule: Q04DX003 (ip), vehicle: Klucel (hydroxypropylcellulose) (HPC)
[22] = dose: 200.0 mg/kg/injection, schedule: Q01DX001 (ip), vehicle: saline
[23] = dose: 400.0 mg/kg/injection, schedule: Q01DX001 (ip), vehicle: saline
[24] = dose: 50.0 mg/kg/injection, schedule: Q01DX001 (ip), vehicle: carboxymethylcellulose (CMC)

Measured: T/C

c1nc(NCCc2cnc[nH]2)c2[nH]cnc2n1
inactive: [1] 95 % of control | [2] 90 % of control | [3] 97 % of control

CC(C)C(Cl)C(=O)O (stereo unspecified)
inactive: [4] 96 % of control | [5] 104 % of control

O=C(OCCOCCN1CCCCC1)N1c2ccccc2Sc2cccnc21
inactive: [6] 104 % of control | [7] 102 % of control | dose: 10.0 mg/kg/injection, schedule: Q01DX001 (ip), vehicle: saline 101 % of control | [8] 107 % of control | dose: 20.0 mg/kg/injection, schedule: Q01DX001 (ip), vehicle: saline 98 % of control | [9] 103 % of control | dose: 25.0 mg/kg/injection, schedule: Q04DX003 (ip), vehicle: saline 106 % of control | dose: 40.0 mg/kg/injection, schedule: Q01DX001 (ip), vehicle: saline 101 % of control | [10] 101 % of control | dose: 50.0 mg/kg/injection, schedule: Q04DX003 (ip), vehicle: saline 111 % of control | dose: 80.0 mg/kg/injection, schedule: Q01DX001 (ip), vehicle: saline 101 % of control | [11] 98 % of control | [12] 106 % of control

CC(=O)c1ccc(OCc2ccccc2)cc1OCC(O)CN1CCN(c2ccc(C)c(C)c2)CC1 (stereo unspecified)
inactive: dose: 100.0 mg/kg/injection, schedule: Q04DX003 (ip), vehicle: saline with Tween-80 97 % of control | dose: 200.0 mg/kg/injection, schedule: Q04DX003 (ip), vehicle: saline with Tween-80 95 % of control | dose: 400.0 mg/kg/injection, schedule: Q04DX003 (ip), vehicle: saline with Tween-80 92 % of control

C[n+]1ccc(/C=C/c2c[nH]c3ccccc23)cc1
inactive: dose: 6.25 mg/kg/injection, schedule: Q04DX003 (ip), vehicle: saline with Tween-80 92 % of control | dose: 12.5 mg/kg/injection, schedule: Q04DX003 (ip), vehicle: saline with Tween-80 104 % of control | dose: 25.0 mg/kg/injection, schedule: Q04DX003 (ip), vehicle: saline with Tween-80 97 % of control

O=C(O)C1C2C=CC(C3C=CC32)C1C(=O)O (stereo unspecified)
inactive: [7] 98 % of control | [8] 110 % of control | [9] 102 % of control and 115 % of control | [10] 96 % of control and 105 % of control | [13] 100 % of control | [14] 100 % of control | [15] 94 % of control

CCN(Cc1ccc(Cl)c(Cl)c1)c1ccc2nc(N)nc(N)c2c1C
inactive: dose: 1.56 mg/kg/injection, schedule: Q01DX009 (ip), vehicle: water 110 % of control | dose: 3.12 mg/kg/injection, schedule: Q01DX009 (ip), vehicle: water 103 % of control and 110 % of control | dose: 6.25 mg/kg/injection, schedule: Q01DX009 (ip), vehicle: water 116 % of control and 124 % of control | dose: 12.5 mg/kg/injection, schedule: Q01DX009 (ip), vehicle: water 121 % of control | dose: 25.0 mg/kg/injection, schedule: Q01DX009 (ip), vehicle: water 110 % of control

Cc1c(Cl)cccc1NC(=O)c1ccccc1
inactive: [16] 93 % of control | [17] 91 % of control | [18] 96 % of control | [19] 106 % of control | [20] 100 % of control | [21] 98 % of control

O=C1C(C(Cl)c2ccccc2)SC(c2ccccc2)N1c1ccccc1 (stereo unspecified)
inactive: [16] 95 % of control | [17] 102 % of control | [18] 95 % of control | [19] 89 % of control | [20] 95 % of control | [21] 96 % of control

O=C1CC(=P(c2ccccc2)(c2ccccc2)c2ccccc2)C(=O)N1c1cccc2ccc(O)cc12
inactive: [4] 101 % of control | [5] 96 % of control | dose: 300.0 mg/kg/injection, schedule: Q01DX001 (ip), vehicle: saline 95 % of control

COc1ccc(OC)c(NC(=O)c2ccc(F)cc2)c1
inactive: [16] 98 % of control | [18] 107 % of control | [20] 96 % of control

CSc1nc(C)c(C)[n+](C)n1
inactive: dose: 75.0 mg/kg/injection, schedule: Q01DX001 (ip), vehicle: saline with Tween-80 115 % of control | dose: 150.0 mg/kg/injection, schedule: Q01DX001 (ip), vehicle: saline with Tween-80 117 % of control

C=C(C)[P+](C)(c1ccccc1)c1ccccc1
inactive: dose: 2.5 mg/kg/injection, schedule: Q01DX001 (ip), vehicle: saline 102 % of control | [6] 105 % of control

Cc1cc(C(=O)Nc2ccc(NC3=NCCN3)cc2)c(C)cc1C(=O)Nc1ccc(NC2=NCCN2)cc1
inactive: dose: 1.88 mg/kg/injection, schedule: Q01DX Z (ip), vehicle: saline 93 % of control | dose: 3.75 mg/kg/injection, schedule: Q01DX Z (ip), vehicle: saline 98 % of control | dose: 7.5 mg/kg/injection, schedule: Q01DX Z (ip), vehicle: saline 94 % of control | dose: 15.0 mg/kg/injection, schedule: Q01DX Z (ip), vehicle: saline 108 % of control | dose: 30.0 mg/kg/injection, schedule: Q01DX Z (ip), vehicle: saline 103 % of control

CCOC(=O)/C(C#N)=C1/CC2CCC1(C)OC2(C)C (stereo unspecified)
inactive: [17] 98 % of control | [19] 96 % of control | [21] 102 % of control

COP(=O)(CCBr)OC
inactive: [11] 103 % of control | [13] 101 % of control | [12] 104 % of control | [22] 102 % of control | [14] 103 % of control | dose: 200.0 mg/kg/injection, schedule: Q04DX003 (ip), vehicle: saline 104 % of control | [23] 108 % of control | [15] 98 % of control | dose: 400.0 mg/kg/injection, schedule: Q04DX003 (ip), vehicle: saline 106 % of control

Oc1ccc(Cl)cc1/C=N\NC(=S)Nc1ccc2cn[nH]c2c1
inactive: [24] 102 % of control | [1] 86 % of control | [2] 102 % of control

O=C(O)/C(=C\c1cc2c(cc1[N+](=O)[O-])OCO2)c1cc2c(cc1Br)OCO2
inactive: [24] 97 % of control | [1] 100 % of control | [2] 103 % of control | [3] 92 % of control

CC1(C)N=C(N)N=C(N)N1c1cccc(Cl)c1Cl
inactive: dose: 5.0 mg/kg/injection, schedule: Q01DX009 (ip), vehicle: saline 95 % of control | dose: 10.0 mg/kg/injection, schedule: Q01DX009 (ip), vehicle: saline 104 % of control | dose: 20.0 mg/kg/injection, schedule: Q01DX009 (ip), vehicle: saline 107 % of control

Cc1c(C(=O)O)c(-c2ccc([N+](=O)[O-])cc2)c(C=O)n1-c1ccccc1
inactive: dose: 100.0 mg/kg/injection, schedule: Q04DX002 (ip), vehicle: Klucel (hydroxypropylcellulose) (HPC) 91 % of control | dose: 200.0 mg/kg/injection, schedule: Q04DX002 (ip), vehicle: Klucel (hydroxypropylcellulose) (HPC) 97 % of control | dose: 400.0 mg/kg/injection, schedule: Q04DX002 (ip), vehicle: Klucel (hydroxypropylcellulose) (HPC) 102 % of control

CCc1ccc(C2=C(O)C(=O)C(c3ccccc3)=C(O)C2=O)cc1
inactive: dose: 12.5 mg/kg/injection, schedule: Q01DX009 (ip), vehicle: acetone 95 % of control | dose: 25.0 mg/kg/injection, schedule: Q01DX009 (ip), vehicle: acetone 90 % of control | dose: 33.0 mg/kg/injection, schedule: Q01DX009 (ip), vehicle: acetone 96 % of control | dose: 33.0 mg/kg/injection, schedule: Q01DX009 (ip), vehicle: saline 96 % of control | dose: 50.0 mg/kg/injection, schedule: Q01DX009 (ip), vehicle: acetone 101 % of control | [10] 97 % of control | dose: 75.0 mg/kg/injection, schedule: Q01DX009 (ip), vehicle: acetone 118 % of control

CCOC(=O)NC(C)NC(=O)OCC
inactive: [11] 107 % of control | [22] 101 % of control | [23] 97 % of control

CCc1ccc(N=Nc2ccc(-c3ccc(NC(C)=O)cc3)cc2)cc1
inactive: [1] 94 % of control | [2] 102 % of control | [3] 105 % of control
